Reference: patent US20140121258A1, “COMPOUNDS ACT AT MULTIPLE PROSTAGLANDIN RECEPTORS GIVING A GENERAL ANTI-INFLAMMATORY RESPONSE” (ALLERGAN, INC., priority 2010, published 2014)

Tests used:
[1] = target: T1, human prostanoid EP1 receptor (Homo sapiens, UniProt P34995); test: FLIPR Ca2+ signaling antagonist assay, EP1 receptor stable cell line; assay type: cell-based; conditions: HEK-293 EBNA stable cells, standard agonist PGE2; NA = inactive (no antagonism or Kb≧10,000 nM)
T1 construct: expressed in transfected cells
T1 sequence (P34995 1-402): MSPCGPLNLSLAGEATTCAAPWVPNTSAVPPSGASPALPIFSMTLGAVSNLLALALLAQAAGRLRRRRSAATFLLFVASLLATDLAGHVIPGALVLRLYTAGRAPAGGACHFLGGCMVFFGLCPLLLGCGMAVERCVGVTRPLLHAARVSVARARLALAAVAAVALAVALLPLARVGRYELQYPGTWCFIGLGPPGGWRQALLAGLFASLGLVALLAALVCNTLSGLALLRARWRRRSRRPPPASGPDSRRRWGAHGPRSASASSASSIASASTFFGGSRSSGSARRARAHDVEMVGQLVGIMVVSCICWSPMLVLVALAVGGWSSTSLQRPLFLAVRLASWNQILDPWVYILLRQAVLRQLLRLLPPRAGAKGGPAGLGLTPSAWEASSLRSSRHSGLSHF
Method: (§1) The above compounds were tested for PG antagonist activity as follows using human recombinant prostanoid receptor (DP1, EP1-4, FP, IP and TP) stable cell lines:
(§2) In order to measure the response of Gs and Gi coupled prostanoid receptors as a Ca^2+ signal, chimeric G protein cDNAs were used. Stable cell lines over-expressing human prostanoid DP1, EP1-4, FP, IP, and TP receptors were established as follows:
(§3) Briefly, human prostanoid DP1, EP2, and EP4 receptor cDNAs were co-transfected with chimeric Gqs cDNA containing a haemagglutanin (HA) epitope; human prostanoid EP3 receptors were co-transfected with chimeric Gqi-HA; human EP1, FP, IP, and TP receptor cDNAs were expressed with no exogenous G-proteins. Gqs and Gqi chimeric cDNAs (Molecular Devices, Sunnyvale, Calif., U.S.A.), as well as cDNAs of prostanoid receptors, were cloned into a pCEP4 vector with a hygromycin B selection marker. Transfection into HEK-293 EBNA (Epstein-Barr virus nuclear antigen) cells was achieved by the FuGENE 6 transfection Reagent (Roche Applied Science, Indianapolis, Ind., USA). Stable transfectants were selected according to hygromycin resistance. Because Gqs and Gqi contained an HA epitope, G-protein expression was detected by Western blotting analysis using anti-mouse HA monoclonal antibody and horseradish peroxidase (HRP)-conjugated secondary antibody, while functional expression of prostanoid receptors was detected by FLIPR screening (Matias et al., 2004). These stable cell lines were validated using previously published antagonists at 10 μM against serial dilutions of standard agonists by FLIPR functional assays for Ca^2+ Signaling (as described below).
(§4) Ca^2+ signaling studies were performed using a FLIPR TETRA system (Molecular Devices, Sunnyvale, Calif., USA) in the 384-format. This is a high-throughput instrument for cell-based assays to monitor Ca^2+ signaling associated with GPCRs and ion channels. Cells were seeded at a density of 5×10^4 cells/well in BioCoat poly-D-lysine coated, black wall, clear bottom 384-well plates (BD Biosciences, Franklin lakes, NJ, USA) and allowed to attach overnight in an incubator at 37° C. The cells were then washed twice with HBSS-HEPES buffer (Hanks' balanced salt solution without bicarbonate and phenol red, 20 mM HEPES, pH 7.4) using an ELx405 Select CW Microplate Washer (BioTek, Winooski, Vt., USA). After 60 min of dye-loading in the dark using the Ca^2+-sensitive dye Fluo-4AM (Invitrogen, Carlsbad, Calif., USA), at a final concentration of 2×10^−6M, the plates were washed 4 times with HBSS-HEPES buffer to remove excess dye and leaving 50 μl of buffer in each well. The plates were then placed in the FLIPR TETRA instrument and allowed to equilibrate at 37° C. AGN-211377 was added in a 25 μl volume to each well to give final concentrations of 0.1 μM, 0.3 μM, 1 μM, 3 μM, 10 μM, and 30 μM; or 0.067 μM, 0.1 μM, 0.2 μM, 0.3 μM, 0.67 μM, and 1 μM for cells over-expressing TP receptors. After 4.5 minutes, a 7-point serial dilution of the standard agonist for the corresponding receptor, in a 25 μl volume was injected at the final concentrations from 10^−11M to 10^−5M in 10-fold serial dilution increments for cells expressing human recombinant DP1, EP1, EP2, EP3, EP4, FP, and IP receptors. The dose range for the standard agonist for human recombinant TP receptors was from 10^−12M to 10^−6M. HBSS-HEPES buffer was used as the negative control for the standard agonists. Cells were excited with LED (light emitting diode) excitation at 470-495 nm and emission was measured through an emission filter at 515-575 nm. Assay plates were read for 3.5 minutes using the FLIPR^TETRA. The peak increase in fluorescence intensity was recorded for each well. On each plate, negative controls, dose response of positive controls, and co-treatments of antagonist-agonist for each dose were in triplicates. Standard agonists were as follows: DP=BW 245C, EP1-EP4=PGE2, FP=17-phenyl-PGF2α, IP=Cicaprost, and TP=U-46619. […]

[2] = target: T2, human prostanoid EP2 receptor (Homo sapiens, UniProt P43116); test: FLIPR Ca2+ signaling antagonist assay, EP2 receptor stable cell line; assay type: cell-based; conditions: HEK-293 EBNA stable cells with chimeric Gqs, standard agonist PGE2; NA = inactive (no antagonism or Kb≧10,000 nM)
T2 construct: expressed in transfected cells
Method: as §1, §2, §3, §4

[3] = target: T3, human prostanoid DP1 receptor (Homo sapiens, UniProt Q13258); test: FLIPR Ca2+ signaling antagonist assay, DP1 receptor stable cell line; assay type: cell-based; conditions: HEK-293 EBNA stable cells with chimeric Gqs, standard agonist BW 245C; NA = inactive (no antagonism or Kb≧10,000 nM)
T3 construct: expressed in transfected cells
T3 sequence (Q13258 1-359): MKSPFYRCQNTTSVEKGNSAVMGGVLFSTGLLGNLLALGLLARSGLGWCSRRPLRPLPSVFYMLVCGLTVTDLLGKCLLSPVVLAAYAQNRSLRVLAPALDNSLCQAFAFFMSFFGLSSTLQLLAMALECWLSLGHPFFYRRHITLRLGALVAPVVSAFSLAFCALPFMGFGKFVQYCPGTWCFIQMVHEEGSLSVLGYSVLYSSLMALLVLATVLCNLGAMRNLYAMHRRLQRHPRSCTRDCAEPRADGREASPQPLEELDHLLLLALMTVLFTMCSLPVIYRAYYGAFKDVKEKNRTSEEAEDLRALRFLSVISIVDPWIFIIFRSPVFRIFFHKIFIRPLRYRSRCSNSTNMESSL
Method: as §1, §2, §3, §4

[4] = Allergic conjunctival itch (itch-scratch episodes); assay type: in vivo; conditions: FIGS. 10 and 11, both experiments
Method: The compounds of this invention were tested according to the method described in “Characterization of Receptor Subtypes Involved in Prostanoid-Induced Conjunctival Pruritis and Their Role in Mediating Conjunctival Itching”, Vol. 279, No. 1, (JPET)279, 137-142′ 1996 for their efficacy in alleviating itch.

[5] = tested on: Dutch-belted pigmented rabbits; test: Arachidonate induced uveitis, anterior chamber leukocyte infiltration; assay type: in vivo, rabbit; conditions: topical, concentrations of 0.1, 0.3 and 1%; 0.5% sodium arachidonate challenge; FIG. 12
Method: The rational for this protocol is to use arachidonate to directly produce ocular anterior segment uveitis, as opposed to using lipopolysaccharide (LPS) to indirectly release arachidonic acid.
Conscious male or female Dutch-belted pigmented rabbits weighing 2.5-3 kg were used for all in vivo slit lamp studies. Four animals were employed per test group. The right eye of each animal receiving 35 μl of topically administered test and the contralateral left eye of each animal receiving 35 μl of topically administered vehicle (t=0 minutes), followed 30 minutes later by treatment with 35 μl of 0.5% sodium arachidonate onto the surface of both eyes (t=30 minutes). Both eyes were examined by slit lamp 60 minutes following sodium arachdionate challenge (t=90 minutes) at 16× magnification under both white light and blue light illumination at an approximate angle of 45° through 1 mm and 5 mm slit widths.
Anterior chamber leukocyte infiltration was measured using a numerical scoring system to estimate cell number per field defined by a 5 mm slit width: 0=no cells per field (no response); 1=1-10 cells per field (mild); 2=11-20 cells per field (moderate); 3=[…] cells per field (severe); 4=>50 cells per filed (florid). Results are reported as the mean score value±S.E.M.

[6] = target: T4, human prostanoid TP receptor (Homo sapiens, UniProt P21731); test: FLIPR Ca2+ signaling antagonist assay, TP receptor stable cell line; assay type: cell-based; conditions: HEK-293 EBNA stable cells, standard agonist U-46619; NA = inactive (no antagonism or Kb≧10,000 nM)
T4 construct: expressed in transfected cells
T4 sequence (P21731 1-343): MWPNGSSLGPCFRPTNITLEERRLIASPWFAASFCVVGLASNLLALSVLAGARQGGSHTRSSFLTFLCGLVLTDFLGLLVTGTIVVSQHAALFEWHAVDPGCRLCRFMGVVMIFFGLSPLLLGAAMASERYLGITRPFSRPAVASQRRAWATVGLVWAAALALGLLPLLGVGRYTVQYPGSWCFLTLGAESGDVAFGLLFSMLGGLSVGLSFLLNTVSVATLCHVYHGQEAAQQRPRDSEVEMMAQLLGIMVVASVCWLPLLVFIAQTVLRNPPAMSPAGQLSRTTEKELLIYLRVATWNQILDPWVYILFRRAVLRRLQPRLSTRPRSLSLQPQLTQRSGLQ
Method: as §1, §2, §3, §4

[7] = target: T5, human prostanoid FP receptor (Homo sapiens, UniProt P43088); test: FLIPR Ca2+ signaling antagonist assay, FP receptor stable cell line; assay type: cell-based; conditions: HEK-293 EBNA stable cells, standard agonist 17-phenyl-PGF2α; NA = inactive (no antagonism or Kb≧10,000 nM)
T5 construct: expressed in transfected cells
Method: as §1, §2, §3, §4

[8] = target: T6, human prostanoid IP receptor (Homo sapiens, UniProt P43119); test: FLIPR Ca2+ signaling antagonist assay, IP receptor stable cell line; assay type: cell-based; conditions: HEK-293 EBNA stable cells, standard agonist Cicaprost; NA = inactive (no antagonism or Kb≧10,000 nM)
T6 construct: expressed in transfected cells
Method: as §1, §2, §3, §4

[9] = target: T7, human prostanoid EP4 receptor (Homo sapiens, UniProt P35408); test: FLIPR Ca2+ signaling antagonist assay, EP4 receptor stable cell line; assay type: cell-based; conditions: HEK-293 EBNA stable cells with chimeric Gqs, standard agonist PGE2; NA = inactive (no antagonism or Kb≧10,000 nM)
T7 construct: expressed in transfected cells
Method: as §1, §2, §3, §4

[10] = target: T8, human prostanoid EP3 receptor (Homo sapiens, UniProt P43115); test: FLIPR Ca2+ signaling antagonist assay, EP3 receptor stable cell line; assay type: cell-based; conditions: HEK-293 EBNA stable cells with chimeric Gqi, standard agonist PGE2; NA = inactive (no antagonism or Kb≧10,000 nM)
T8 construct: expressed in transfected cells
T8 sequence (P43115 1-390): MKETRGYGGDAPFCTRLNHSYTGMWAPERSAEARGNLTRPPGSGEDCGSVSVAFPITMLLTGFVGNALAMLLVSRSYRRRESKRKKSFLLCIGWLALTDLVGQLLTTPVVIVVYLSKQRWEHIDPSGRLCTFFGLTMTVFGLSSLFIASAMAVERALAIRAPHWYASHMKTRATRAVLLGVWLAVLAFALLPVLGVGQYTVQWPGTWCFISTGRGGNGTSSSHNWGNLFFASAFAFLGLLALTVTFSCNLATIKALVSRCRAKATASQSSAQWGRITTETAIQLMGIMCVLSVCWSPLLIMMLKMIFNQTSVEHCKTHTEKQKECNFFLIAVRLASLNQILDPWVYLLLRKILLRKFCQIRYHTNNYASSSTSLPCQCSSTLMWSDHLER
Method: as §1, §2, §3
Ca^2+ signaling studies were performed using a FLIPR TETRA system (Molecular Devices, Sunnyvale, Calif., USA) in the 384-format. […] Cells were excited with LED (light emitting diode) excitation at 470-495 nm and emission was measured through an emission filter at 515-575 nm. Assay plates were read for 3.5 minutes using the FLIPR^TETRA. The peak increase in fluorescence intensity was recorded for each well. […]

T5 sequence (P43088 whole entry): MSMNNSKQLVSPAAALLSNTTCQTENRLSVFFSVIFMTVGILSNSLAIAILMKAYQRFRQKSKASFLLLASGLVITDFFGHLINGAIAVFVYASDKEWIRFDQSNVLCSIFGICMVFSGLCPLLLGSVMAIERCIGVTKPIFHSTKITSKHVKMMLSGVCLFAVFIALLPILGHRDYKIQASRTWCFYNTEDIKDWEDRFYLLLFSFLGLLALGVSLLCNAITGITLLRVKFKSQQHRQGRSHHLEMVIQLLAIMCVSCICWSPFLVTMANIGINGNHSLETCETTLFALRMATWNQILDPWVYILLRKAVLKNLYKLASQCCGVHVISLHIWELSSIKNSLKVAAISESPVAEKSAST
T2 sequence (P43116 whole entry): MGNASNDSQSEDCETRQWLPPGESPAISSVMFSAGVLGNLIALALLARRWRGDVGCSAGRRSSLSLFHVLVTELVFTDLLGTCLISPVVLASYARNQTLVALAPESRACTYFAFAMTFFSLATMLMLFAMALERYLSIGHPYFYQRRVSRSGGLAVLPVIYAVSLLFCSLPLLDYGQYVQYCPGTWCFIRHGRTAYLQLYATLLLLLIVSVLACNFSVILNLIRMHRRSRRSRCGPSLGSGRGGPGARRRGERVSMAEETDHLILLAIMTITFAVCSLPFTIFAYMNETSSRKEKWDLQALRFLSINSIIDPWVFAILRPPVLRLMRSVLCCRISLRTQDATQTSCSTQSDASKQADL
T7 sequence (P35408 whole entry): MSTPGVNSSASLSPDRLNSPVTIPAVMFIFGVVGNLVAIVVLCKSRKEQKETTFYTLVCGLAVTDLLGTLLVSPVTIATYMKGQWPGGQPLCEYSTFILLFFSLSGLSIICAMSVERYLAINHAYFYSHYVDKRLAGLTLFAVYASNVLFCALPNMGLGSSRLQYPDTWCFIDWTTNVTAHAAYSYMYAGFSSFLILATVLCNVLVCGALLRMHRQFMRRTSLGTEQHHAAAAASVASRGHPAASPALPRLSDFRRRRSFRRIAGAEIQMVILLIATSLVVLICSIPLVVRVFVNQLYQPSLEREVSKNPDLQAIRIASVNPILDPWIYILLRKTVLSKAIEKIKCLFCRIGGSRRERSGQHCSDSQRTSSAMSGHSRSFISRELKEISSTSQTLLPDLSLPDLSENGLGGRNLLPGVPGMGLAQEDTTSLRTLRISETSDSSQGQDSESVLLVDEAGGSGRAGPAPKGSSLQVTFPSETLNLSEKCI
T6 sequence (P43119 whole entry): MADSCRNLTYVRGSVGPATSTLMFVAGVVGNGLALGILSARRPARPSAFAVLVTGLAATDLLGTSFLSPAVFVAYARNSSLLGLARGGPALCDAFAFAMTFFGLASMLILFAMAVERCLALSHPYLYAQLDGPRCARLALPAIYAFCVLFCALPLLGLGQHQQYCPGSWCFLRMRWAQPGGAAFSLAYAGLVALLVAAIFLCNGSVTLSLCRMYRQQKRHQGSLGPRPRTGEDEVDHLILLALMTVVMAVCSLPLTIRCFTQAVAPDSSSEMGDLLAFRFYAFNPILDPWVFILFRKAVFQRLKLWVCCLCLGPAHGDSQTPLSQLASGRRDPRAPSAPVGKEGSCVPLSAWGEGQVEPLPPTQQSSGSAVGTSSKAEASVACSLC

Kb [1] [nM]	Kb [2] [nM]	Kb [3] [nM]	Kb [6] [nM]	Kb [7] [nM]	Kb [8] [nM]	Kb [9] [nM]	Kb [10] [µM]	Structure (SMILES)	number of itch-scratch episodes [4]	effect in model for uveitis (anterior chamber leukocyte infiltration score) [5]
22	3100	280	12	140	620	150	1.4	Cc1cc(CCC(=O)NS(=O)(=O)C(F)(F)F)nn1Cc1cc(Cl)ccc1OCc1ccc(Cl)cc1 [Example 1, N-(3-{1-[5-Chloro-2-(4-Chloro-Benzyloxy)-Benzyl]-5-Methyl-1H-Pyrazol-3-yl}-Propionyl)-C,C,C-Trifluoromethanesulfonamide]		
24	1200	240	30	75	1600	120	7.8	Cc1cc(CCC(=O)O)nn1Cc1cc(Br)ccc1OCC1CCCC1 [Example 4, 3-[1-(5-Bromo-2-cyclopentylmethoxybenzyl)-5-methyl-1H-pyrazol-3-yl]-propionic acid]		
80	4500	280	3	110	1200	180		Cc1cc(CCC(=O)O)nn1Cc1cc(Cl)ccc1OCC1CCCC1 [Example 4a, 3-[1-(5-Chloro-2-cyclopentylmethoxybenzyl)-5-methyl-1H-pyrazol-3-yl]-propionic acid]		
24	3400	220	7	63	6800	240		Cc1cc(CCC(=O)O)nn1Cc1cc(C(F)(F)F)ccc1OCC1CCCC1 [Example 5, 3-[1-(2-Cyclopentylmethoxy-5-trifluoromethylbenzyl)-5-methyl-1H-pyrazol-3-yl]-propionic acid]		

Structure (SMILES)	Kb [1] [nM]	Kb [2] [nM]	Kb [3] [nM]	Kb [6] [nM]	Kb [7] [nM]	Kb [8] [nM]	Kb [9] [nM]	Kb [10] [µM]	number of itch-scratch episodes [4]	effect in model for uveitis (anterior chamber leukocyte infiltration score) [5]
CCC(CC)COc1ccc(Br)cc1Cn1nc(CCC(=O)O)cc1C [Example 3, 3-{1-[5-Bromo-2-(2-ethyl-butoxy)-benzyl]-5-methyl-1H-pyrazol-3-yl}-propionic acid]	40	2300	140	9	75	1600	85		significantly lower number of itch-scratch episodes	dose dependent response
CCC(CC)COc1ccc(Cl)cc1Cn1nc(CCC(=O)O)cc1C [Example 3a, 3-{1-[5-Chloro-2-(2-ethyl-butoxy)-benzyl]-5-methyl-1H-pyrazol-3-yl}-propionic acid]	71	2900	220	5	180	1100	68	7.1	significantly lower number of itch-scratch episodes	dose dependent response
